Experiments:
Assay type in all cases: in vivo
[1] = tested on: diamondback moth (Plutella xylostella); assay: Insecticidal effect on diamondback moth (Test Example 1); settings: diamondback moth; judged by the criterion of Test Example 1
In short: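 Read-out was mortality from hatched-insect counts taken 6 days after the egg-bearing cabbage seedling was immersed, graded by set criteria. Seedlings were air-dried and kept at 25° C after treatment. Groups of 10 insects, in triplicate.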

[2] = tested on: common cutworm (Spodoptera Litura); assay: Insecticidal effect on common cutworm (Test Example 2); settings: 500 ppm, cabbage leaf dip, second-instar larvae of common cutworm, 8 days after inoculation, 25° C.
In short: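 Air-dried treated material was placed in a closed dish with second-instar larvae and held at 25° C. Dead and live insects were counted eight days after inoculation, and mortality was calculated and scored against a fixed insecticidal-effect criterion. Three replicate groups of 10 insects were used.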

[3] = tested on: rice leafroller (Cnaphalocrocis medinalis); assay: Insecticidal effect on rice leafroller (Test Example 3); settings: 500 ppm, rice lamina dip, third-instar larvae of rice leafroller, 4 days after inoculation, 25° C., humidity 70%
In short: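 Groups of 10 third-instar larvae, in triplicate, are placed on air-dried lamina resting on wet filter paper. Incubation runs four days at 25° C with 70% humidity before survivors and dead are tallied.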

Q: Which results are given for `CCCNC(=O)c1c(I)cccc1C(=O)Nc1ccc(OC(F)F)cc1C` [compound 1450]?
A: Insecticidal effect (Test Example 1), judged from mortality [1]: A (100); Insecticidal effect (Test Example 2), judged from mortality [2]: A (100); Insecticidal effect (Test Example 3), judged from mortality [3]: A (100)

Q: How did the “Insecticidal effect (Test Example 1), judged from mortality” value [1] turn out when `Cc1cc(OC(F)F)ccc1NC(=O)c1cccc(I)c1C(=O)NC1CC1` [compound 1452] was run?
A: A (100)

Q: What about the “Insecticidal effect (Test Example 2), judged from mortality” value [2] of the same molecule?
A: A (100)

Q: And the “Insecticidal effect (Test Example 3), judged from mortality” value [3]?
A: A (100)

Q: Which results are given for `CCC(C)NC(=O)c1c(I)cccc1C(=O)Nc1ccc(OC(F)F)cc1C` (stereo not drawn) [compound 1454]?
A: Insecticidal effect (Test Example 1), judged from mortality [1]: A (100); Insecticidal effect (Test Example 2), judged from mortality [2]: A (100); Insecticidal effect (Test Example 3), judged from mortality [3]: A (100)

Q: How did the “Insecticidal effect (Test Example 1), judged from mortality” value [1] turn out when `Cc1cc(OC(F)F)ccc1NC(=O)c1cccc(Cl)c1C(=O)N[C@H](C)c1ccccc1` [compound 1458] was run?
A: A (100)

Q: What about the “Insecticidal effect (Test Example 2), judged from mortality” value [2] of the same molecule?
A: A (100)

Q: And the “Insecticidal effect (Test Example 3), judged from mortality” value [3]?
A: A (100)

Q: `Cc1cc(C(F)(F)C(F)(F)F)ccc1NC(=O)c1cccc(Cl)c1C(=O)N[C@H](C)CO` [compound 1460] was tested. Which “Insecticidal effect (Test Example 1), judged from mortality” value [1] did it give?
A: A (100)

Q: What about the “Insecticidal effect (Test Example 2), judged from mortality” value [2] of the same molecule?
A: C (89-80)

Q: What about the “Insecticidal effect (Test Example 3), judged from mortality” value [3] of the same molecule?
A: A (100)

Q: With `Cc1cc(C(F)(F)C(F)(F)F)ccc1NC(=O)c1cccc(I)c1C(=O)NC(C)(C)CO` [compound 1464] as the molecule, how does the “Insecticidal effect (Test Example 1), judged from mortality” value [1] read?
A: A (100)

Q: And the “Insecticidal effect (Test Example 2), judged from mortality” value [2]?
A: A (100)

Q: What about the “Insecticidal effect (Test Example 3), judged from mortality” value [3] of the same molecule?
A: A (100)

Q: Which results are given for `C#CC(C)(C)NC(=O)c1c(Cl)cccc1C(=O)Nc1ccc(C(F)(F)C(F)(F)F)cc1C` [compound 1466]?
A: Insecticidal effect (Test Example 1), judged from mortality [1]: A (100); Insecticidal effect (Test Example 2), judged from mortality [2]: A (100); Insecticidal effect (Test Example 3), judged from mortality [3]: A (100)

Q: `C#CC(C)(C)NC(=O)c1cccc(Cl)c1C(=O)Nc1ccc(C(F)(F)C(F)(F)F)cc1C` [compound 1467] was tested. Which “Insecticidal effect (Test Example 1), judged from mortality” value [1] did it give?
A: A (100)

Q: What about the “Insecticidal effect (Test Example 2), judged from mortality” value [2] of the same molecule?
A: A (100)

Q: What about the “Insecticidal effect (Test Example 3), judged from mortality” value [3] of the same molecule?
A: A (100)

Q: For `Cc1cc(C(F)(F)C(F)(F)F)ccc1NC(=O)c1cccc(Cl)c1C(=O)NCc1ccccc1F` [compound 1468], which “Insecticidal effect (Test Example 1), judged from mortality” value [1] is on record?
A: A (100)

Q: What about the “Insecticidal effect (Test Example 2), judged from mortality” value [2] of the same molecule?
A: C (89-80)

Q: And the “Insecticidal effect (Test Example 3), judged from mortality” value [3]?
A: A (100)

Q: With `CCC(C)NC(=O)c1c(I)cccc1C(=O)Nc1ccc(C(F)(F)C(F)(F)F)cc1F` (stereo not drawn) [compound 1472] as the molecule, how does the “Insecticidal effect (Test Example 1), judged from mortality” value [1] read?
A: A (100)

Q: What about the “Insecticidal effect (Test Example 2), judged from mortality” value [2] of the same molecule?
A: A (100)

Q: And the “Insecticidal effect (Test Example 3), judged from mortality” value [3]?
A: A (100)

Q: `CCC(C)NC(=O)c1c(I)cccc1C(=O)Nc1ccc(C(F)(F)C(F)(F)F)cc1Cl` (stereo not drawn) [compound 1473] was tested. Which “Insecticidal effect (Test Example 1), judged from mortality” value [1] did it give?
A: A (100)

Q: What about the “Insecticidal effect (Test Example 2), judged from mortality” value [2] of the same molecule?
A: A (100)

Q: What about the “Insecticidal effect (Test Example 3), judged from mortality” value [3] of the same molecule?
A: A (100)

Q: For `CC(C)NC(=O)c1c(I)cccc1C(=O)Nc1ccc(C(F)(F)C(F)(F)C(F)(F)F)cc1F` [compound 1474], which “Insecticidal effect (Test Example 1), judged from mortality” value [1] is on record?
A: A (100)

Q: What about the “Insecticidal effect (Test Example 2), judged from mortality” value [2] of the same molecule?
A: A (100)

Q: What about the “Insecticidal effect (Test Example 3), judged from mortality” value [3] of the same molecule?
A: A (100)

Q: `CCc1cc(C(F)(F)C(F)(F)F)ccc1NC(=O)c1cccc(I)c1C(=O)NC(C)(C)C` [compound 1475] was tested. Which “Insecticidal effect (Test Example 1), judged from mortality” value [1] did it give?
A: A (100)

Q: And the “Insecticidal effect (Test Example 2), judged from mortality” value [2]?
A: A (100)

Q: What about the “Insecticidal effect (Test Example 3), judged from mortality” value [3] of the same molecule?
A: A (100)

Reference: patent US6362369B1, “Phthalic acid diamide derivatives fluorine-containing aniline compounds as starting material, agricultural and horticultural insecticides, and a method for application of the insecticides” (Nihon Nohyaku Co., Ltd., priority 1997, dated 2002)
